Experiments:
Rattus norvegicus [1] = experiment: Decrease in number of T cells in peripheral blood after administration for 4 days in rat; assay type: functional; settings: T-cell, 96 h, read-out: ID50 (the source's name)
Rattus norvegicus [2] = experiment: In vivo immunosuppressive effect of compound was determined on host versus graft reaction (HvGR) using popliteal lymph node gain assay in rat; assay type: functional; settings: read-out: ID50 (the source's name)

| SMILES | ED50 (Rattus norvegicus [1]) [mg/kg] | ED50 (Rattus norvegicus [2]) [mg/kg] |
| --- | --- | --- |
| CCCCCCCOc1ccc(CC[C@@](C)(N)CO)cc1 | 0.0092 | 0.088 |
| CCCCCCCOc1ccc(CCC(N)(CO)CCCC)cc1 (stereo unspecified) | > 10 | > 10 |
| CCCCCCCCc1ccc(CCC(N)CO)cc1.Cl (stereo unspecified) | > 10 | > 10 |
| CCCCCCCOc1ccc(CCC(N)(CO)CO)cc1 | 0.014 | 0.049 |
| C/C=C/C[C@@H](C)[C@@H](O)[C@H]1C(=O)N[C@@H](CC)C(=O)N(C)CC(=O)N(C)[C@@H](CC(C)C)C(=O)N[C@@H](C(C)C)C(=O)N(C)[C@@H](CC(C)C)C(=O)N[C@@H](C)C(=O)N[C@H](C)C(=O)N(C)[C@@H](CC(C)C)C(=O)N(C)[C@@H](CC(C)C)C(=O)N(C)[C@@H](C(C)C)C(=O)N1C [CYCLOSPORINE] | > 30 | 2.8 |
| CCCCCCCOc1ccc(CCC(N)(CO)C(C)C)cc1 (stereo unspecified) | 4.5 | 2.7 |
| CCCCCCCOc1ccc(CC[C@@](N)(CO)CCC)cc1 | 4.4 | 0.63 |
| CCCCCCCOc1ccc(CCC(C)(N)CO)cc1 (stereo unspecified) | 0.061 | 0.031 |
| CCCCCCCOc1ccc(CCC(N)(CC)CO)cc1 (stereo unspecified) | 0.044 | 0.059 |
| CCCCCCCOc1ccc(CCC(N)(CO)CCC)cc1 (stereo unspecified) | 7.3 | 3.1 |
| CCCCCCCOc1ccc(CC[C@](N)(CO)CCC)cc1 | > 10 | > 10 |
| CCCCCCCOc1ccc(CC[C@](C)(N)CO)cc1 | > 1 | > 1 |
| CCCCCCCCc1ccc(CCC(N)(CO)CO)cc1.Cl [FINGOLIMOD HYDROCHLORIDE] | 0.024 | 0.2 |

Reference: ChEMBL document CHEMBL1130968, “Synthesis and biological evaluation of 2,2-disubstituted 2-aminoethanols: analogues of FTY720” (1998)
